{"source": "paper PMC9485191", "about": "“The ERK5/NF-κB signaling pathway targets endometrial cancer proliferation and survival” (Cellular and Molecular Life Sciences, 2022)", "key": {"ERK5 [1]": {"molecular_target": "T1, ERK5 (Homo sapiens, UniProt Q13164)", "T1 construct": "gene MAPK7", "T1 sequence (Q13164 2-816)": "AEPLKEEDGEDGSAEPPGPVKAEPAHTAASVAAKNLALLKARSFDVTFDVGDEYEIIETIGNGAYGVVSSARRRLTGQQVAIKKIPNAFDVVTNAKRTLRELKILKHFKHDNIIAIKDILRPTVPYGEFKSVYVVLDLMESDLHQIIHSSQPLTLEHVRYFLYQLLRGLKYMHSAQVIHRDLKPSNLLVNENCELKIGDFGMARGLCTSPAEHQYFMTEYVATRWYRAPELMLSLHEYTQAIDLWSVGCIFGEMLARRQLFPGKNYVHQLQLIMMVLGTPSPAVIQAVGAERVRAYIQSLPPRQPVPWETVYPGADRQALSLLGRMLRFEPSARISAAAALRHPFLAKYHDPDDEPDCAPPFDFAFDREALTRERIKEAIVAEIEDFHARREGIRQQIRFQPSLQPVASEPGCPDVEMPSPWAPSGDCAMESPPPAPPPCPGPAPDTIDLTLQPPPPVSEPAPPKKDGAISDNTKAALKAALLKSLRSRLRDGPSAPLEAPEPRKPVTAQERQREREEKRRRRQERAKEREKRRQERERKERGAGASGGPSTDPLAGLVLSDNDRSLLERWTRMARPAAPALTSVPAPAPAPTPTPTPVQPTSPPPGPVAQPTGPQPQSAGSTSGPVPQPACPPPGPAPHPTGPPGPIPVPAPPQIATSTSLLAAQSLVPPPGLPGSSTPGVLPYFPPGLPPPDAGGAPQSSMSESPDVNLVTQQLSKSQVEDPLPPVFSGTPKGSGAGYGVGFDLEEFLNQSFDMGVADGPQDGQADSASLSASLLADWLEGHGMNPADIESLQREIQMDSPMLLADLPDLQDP", "experiment": "in vitro (cell-free) kinase assay at […] ATP ([…] at […] ATP); supported by inhibition of EGF-induced ERK5 phosphorylation in cells", "format": "biochemical"}, "ERK5 [2]": {"molecular_target": "T1, ERK5", "experiment": "biochemical", "set-up": "radiometric 32P-ATP kinase assay, active ERK5, PIMtide substrate, p81 paper, Cherenkov counting", "conditions": "200 uM ATP", "text": "Gene silencing Validated siRNAs targeting NEMO were from Sigma (ref. EHU032271) and ThermoFisher (ref. AM51331). Scrambled (control) siRNA was from ThermoFisher. siRNAs were transfected into cells using Lipofectamine-2000, following the manufacturer’s recommended protocol. The vectors encoding two different shRNAs targeting ERK5 were from Sigma (TRCN0000010262/pLKO.1; TRCN0000010275/pLKO.1). Lentiviral production is detailed at Supplementary Materials and Methods. In vitro ERK5 kinase activity assay A 40 μL reaction mixture was prepared containing 200 ng of pure active ERK5 (1) and the indicated amount of inhibitor in 50 mM Tris-HCl, pH 7.5, 0.1 mM EGTA, 1 mM 2-mercaptoethanol. […] Assays were carried out for 20 min at 30°C, terminated by applying the reaction mixture onto p81 paper, and the incorporated radioactivity measured by Cherenkov counting. Most of the ERK5 inhibitors developed so far, including JWG-071, are type I competitive inhibitors that target the ATP-binding site. […] Taking in account that the homeostatic levels of intracellular ATP range from 0.5 to 5 mM [31], it is very likely that ERK5 competitive inhibitors (such as JWG-071) should require µM concentrations to displace ATP from the active site in cells. […]"}, "LN-18 (glioblastoma)": {"test_system": "LN-18 (glioblastoma)", "experiment": "cells", "set-up": "MTT reduction cytotoxicity assay in human tumour cell lines", "conditions": "Homo sapiens, LN-18; 48 h, MTT", "experimental": "(§1) Cell viability was determined by MTT (3-(4,5-dimethyl-2-thiazolyl)-2,5-diphenyl-2H-tetrazolium Blue, Sigma) reduction assay. For clonogenic assays, cells were seeded in 6-well plates, treated for 14 days and stained with 0.5% crystal violet solution. Colonies with > 40 cells were counted. Cell proliferation was measured by cell counting assay, using a TC10TM automated cell counter (Bio-Rad, Hercules, CA, USA) using Trypan Blue. Cell viability was also determined using a LIVE/DEAD viability/cytotoxicity kit assay (ThermoFisher), as reported before. The above results prompted us to investigate the anticancer activity of ERK5 inhibition in EC. To do so, we used the endometrioid cancer cell lines Ishikawa and AN3CA cells (that carry PTEN deficiency and P53 mutation), as well as the more clinically aggressive non-endometrioid serous adenocarcinoma cell line ARK1 (PI3KCA mutation). In cell viability assays, JWG-071 induced cytotoxicity in the three EC cell lines tested, with IC50 values ranging 2–3 µM. In fact, JWG-071 induced cytotoxicity in a wide panel of cancer cells, including prostate, cervical, neuroblastoma, and glioblastoma cancers (Supplementary Fig. 4)."}, "IMR-32 (neuroblastoma)": {"test_system": "IMR-32 (neuroblastoma)", "experiment": "cells", "set-up": "MTT reduction cytotoxicity assay in human tumour cell lines", "conditions": "Homo sapiens, IMR-32; 48 h, MTT", "experimental": "as §1"}, "C4-2 (prostate)": {"test_system": "C4-2 (prostate)", "experiment": "cells", "set-up": "MTT reduction cytotoxicity assay in human tumour cell lines", "conditions": "48 h, MTT", "experimental": "as §1"}, "Hela (cervical)": {"test_system": "Hela (cervical)", "experiment": "cells", "set-up": "MTT reduction cytotoxicity assay in human tumour cell lines", "conditions": "Homo sapiens, HeLa; 48 h, MTT", "experimental": "as §1"}, "Ishikawa (endometrial)": {"test_system": "Ishikawa (endometrial)", "experiment": "cells", "set-up": "MTT reduction cytotoxicity assay in human tumour cell lines", "conditions": "Homo sapiens, Ishikawa; 48 h, MTT", "experimental": "as §1"}, "SH-SY5Y (neuroblastoma)": {"test_system": "SH-SY5Y (neuroblastoma)", "experiment": "cells", "set-up": "MTT reduction cytotoxicity assay in human tumour cell lines", "conditions": "Homo sapiens, SH-SY5Y; 48 h, MTT", "experimental": "as §1"}, "AN3CA (endometrial)": {"test_system": "AN3CA (endometrial)", "experiment": "cells", "set-up": "MTT reduction cytotoxicity assay in human tumour cell lines", "conditions": "Homo sapiens, AN3-CA; 48 h, MTT", "experimental": "as §1"}, "ARK1 (endometrial)": {"test_system": "ARK1 (endometrial)", "experiment": "cells", "set-up": "MTT reduction cytotoxicity assay in human tumour cell lines", "conditions": "48 h, MTT", "experimental": "as §1"}}, "data": [{"compound": "CCC(C)N1c2ccccc2C(=O)N(C)c2cnc(Nc3ccc(C(=O)N4CCC(N5CCN(C)CC5)CC4)cc3OC)nc21", "note": "(stereo not shown) [JWG-071]", "values": [{"measurement": "IC50", "setting": "ERK5 [1]", "value": "~90", "unit": "nM"}, {"measurement": "IC50", "setting": "ERK5 [2]", "value": "572 ± 51", "unit": "nM"}, {"measurement": "IC50", "setting": "LN-18 (glioblastoma)", "value": "2900 ± 400", "unit": "nM"}, {"measurement": "IC50", "setting": "IMR-32 (neuroblastoma)", "value": "1900 ± 300", "unit": "nM"}, {"measurement": "IC50", "setting": "C4-2 (prostate)", "value": "2200 ± 300", "unit": "nM"}, {"measurement": "IC50", "setting": "Hela (cervical)", "value": "2900 ± 700", "unit": "nM"}, {"measurement": "IC50", "setting": "Ishikawa (endometrial)", "value": "3200 ± 800", "unit": "nM"}, {"measurement": "IC50", "setting": "SH-SY5Y (neuroblastoma)", "value": "4200 ± 1400", "unit": "nM"}, {"measurement": "IC50", "setting": "AN3CA (endometrial)", "value": "3300 ± 600", "unit": "nM"}, {"measurement": "IC50", "setting": "ARK1 (endometrial)", "value": "2700 ± 200", "unit": "nM"}]}]}
